The target in assay [1] is Butyrylcholinesterase from equine serum (Equus caballus, UniProt P81908). The assay is described as follows: BChE inhibition, modified colorimetric Ellman method. Type of assay: biochemical. In general terms: Ellman's reagent forms a yellow product with free thiols.
Assay [2] addresses T1, hMAO-A (Homo sapiens, UniProt P21397).
T1 sequence (P21397 1-527): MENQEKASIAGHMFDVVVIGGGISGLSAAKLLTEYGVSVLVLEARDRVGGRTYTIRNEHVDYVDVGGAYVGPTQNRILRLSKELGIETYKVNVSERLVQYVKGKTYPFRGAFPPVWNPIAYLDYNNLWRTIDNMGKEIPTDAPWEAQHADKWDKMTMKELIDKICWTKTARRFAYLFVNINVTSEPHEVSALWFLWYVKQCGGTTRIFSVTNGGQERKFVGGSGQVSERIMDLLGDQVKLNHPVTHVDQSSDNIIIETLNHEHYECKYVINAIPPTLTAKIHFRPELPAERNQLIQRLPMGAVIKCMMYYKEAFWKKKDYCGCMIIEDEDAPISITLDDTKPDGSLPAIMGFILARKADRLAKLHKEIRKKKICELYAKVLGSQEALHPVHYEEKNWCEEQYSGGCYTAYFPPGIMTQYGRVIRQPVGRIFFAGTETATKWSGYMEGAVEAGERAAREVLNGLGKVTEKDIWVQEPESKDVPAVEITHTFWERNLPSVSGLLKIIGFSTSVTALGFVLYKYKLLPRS
Nature of the assay: hMAO-A inhibition, in vitro fluorometric technique. Type of assay: biochemical.

Assay [3] deals with Acetylcholinesterase from Electrophorus electricus (electric eel) (Electrophorus electricus, UniProt O42275). The assay is described as follows: biochemical.

A value given as a limit tells only on which side of the number the result lay.

Chain of Butyrylcholinesterase from equine serum (P81908 whole entry): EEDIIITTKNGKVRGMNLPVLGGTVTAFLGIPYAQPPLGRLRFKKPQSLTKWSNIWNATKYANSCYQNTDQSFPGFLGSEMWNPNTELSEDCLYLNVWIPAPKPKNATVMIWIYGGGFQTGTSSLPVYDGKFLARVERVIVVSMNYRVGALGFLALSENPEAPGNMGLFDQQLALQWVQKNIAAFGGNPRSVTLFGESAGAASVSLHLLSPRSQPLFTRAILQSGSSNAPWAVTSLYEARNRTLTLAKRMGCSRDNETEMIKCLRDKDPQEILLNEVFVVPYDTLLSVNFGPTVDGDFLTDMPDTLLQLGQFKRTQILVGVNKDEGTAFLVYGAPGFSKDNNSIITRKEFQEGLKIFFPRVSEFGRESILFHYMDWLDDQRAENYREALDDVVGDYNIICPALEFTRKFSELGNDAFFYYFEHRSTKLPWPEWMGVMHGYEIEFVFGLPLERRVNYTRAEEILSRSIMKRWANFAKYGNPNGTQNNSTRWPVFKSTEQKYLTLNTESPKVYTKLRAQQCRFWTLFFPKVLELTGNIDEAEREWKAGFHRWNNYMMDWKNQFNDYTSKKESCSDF
Chain of Acetylcholinesterase from Electrophorus electricus (electric eel) (O42275 24-633): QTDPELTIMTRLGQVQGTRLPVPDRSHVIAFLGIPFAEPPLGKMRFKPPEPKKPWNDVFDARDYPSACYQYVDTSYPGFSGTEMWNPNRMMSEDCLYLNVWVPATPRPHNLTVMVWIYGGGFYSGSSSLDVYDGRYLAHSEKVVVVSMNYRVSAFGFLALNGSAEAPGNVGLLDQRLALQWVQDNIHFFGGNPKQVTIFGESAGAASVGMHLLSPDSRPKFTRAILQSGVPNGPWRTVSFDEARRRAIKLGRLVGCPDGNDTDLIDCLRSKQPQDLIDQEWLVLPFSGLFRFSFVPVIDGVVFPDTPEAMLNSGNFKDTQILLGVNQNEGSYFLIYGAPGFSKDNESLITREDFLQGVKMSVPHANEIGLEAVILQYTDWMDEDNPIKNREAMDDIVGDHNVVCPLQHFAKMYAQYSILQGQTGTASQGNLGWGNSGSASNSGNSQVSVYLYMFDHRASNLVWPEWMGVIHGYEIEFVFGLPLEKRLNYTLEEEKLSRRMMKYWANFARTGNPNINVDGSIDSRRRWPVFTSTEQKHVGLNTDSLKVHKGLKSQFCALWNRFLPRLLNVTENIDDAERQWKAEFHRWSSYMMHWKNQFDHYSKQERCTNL

A word on the IC50: it is the point on the concentration scale where inhibition reaches its midpoint. Lower therefore signals inhibition by little substance. By Ki is commonly meant the equilibrium dissociation constant of an inhibitor or competing ligand from its target. A lower Ki goes with a stronger hold on the target. For `COc1cccc2cc(/C(C)=N/NC(=O)Cc3ccccc3)c(=O)oc12` [Compound 3i, (E)-N’-(1-(8-methoxy-2-oxo-2 H-chromen-3-yl)ethylidene)-2-phenylacetohydrazide], the IC50 in assay [1] came to 79.3 ± 5.03 µM; in assay [2] it was 1.87 ± 0.07 µM; in assay [3], 18.4 ± 1.98 µM. In addition, the Ki stood at 70.3 ± 3.57 µM in assay [1] and 15.4 ± 2.01 µM in assay [3].
The like results for `COc1cccc2cc(/C(C)=N/NC(=O)c3ccco3)c(=O)oc12` [Compound 3f, (E)-N’-(1-(8-methoxy-2-oxo-2 H-chromen-3-yl)ethylidene)furan-2-carbohydrazide] were, in that order, 78.2 ± 5.8 µM, 3.94 ± 0.43 µM, 23.8 ± 2.44 µM, 68.5 ± 5.07 µM and 19.6 ± 2.44 µM.
As to `COc1cccc2cc(/C(C)=N/NC(=O)c3ccc(C(F)(F)F)cc3)c(=O)oc12` [Compound 3e, (E)-N’-(1-(8-methoxy-2-oxo-2 H-chromen-3-yl)ethylidene)-4-(trifluoromethyl) benzohydrazide], the IC50 in assay [1] amounted to 65.4 ± 4.55 µM; in assay [2] it was 1.51 ± 0.13 µM; in assay [3], 8.01 ± 0.7 µM. In addition, the Ki in assay [1] is 57 ± 3.95 µM; in assay [3], 7.38 ± 1.01 µM.
The corresponding values for `COc1cccc2cc(/C(C)=N/NC(=O)c3ccccc3C)c(=O)oc12` [Compound 3d, (E)-N’-(1-(8-methoxy-2-oxo-2 H-chromen-3-yl)ethylidene)-2-methylbenzohydrazide] are 90.1 ± 3.78 µM, 1.73 ± 0.05 µM, 20.2 ± 2.67 µM, 69.9 ± 5.75 µM and 13.5 ± 1.24 µM.
The like results for `COc1cccc2cc(/C(C)=N/NC(=O)c3cccc4[nH]ccc34)c(=O)oc12` [Compound 3g, (E)-N’-(1-(8-methoxy-2-oxo-2 H-chromen-3-yl)ethylidene)-1 H-indole-4-carbohydrazide] were, in that order, 81.5 ± 6.02 µM, 2.08 ± 0.15 µM, 29 ± 4.3 µM, 73.6 ± 4.66 µM and 21 ± 3.48 µM.
`COc1cccc2cc(/C(C)=N/NC(=O)c3ccccn3)c(=O)oc12` [Compound 3l, (E)-N’-(1-(8-methoxy-2-oxo-2 H-chromen-3-yl)ethylidene)picolinohydrazide]: the IC50 amounted to 75 ± 5.3 µM in assay [1], 1.65 ± 0.34 µM in assay [2] and 8.54 ± 1.01 µM in assay [3]. The Ki in assay [1] was found to be 69 ± 5.3 µM; in assay [3], 7.08 ± 0.64 µM.
The corresponding values for `COc1cccc2cc(/C(C)=N/NC(=O)c3cccc(Cl)c3)c(=O)oc12` [Compound 3h, (E)-3-chloro-N’-(1-(8-methoxy-2-oxo-2 H-chromen-3-yl)ethylidene)benzohydrazide] are 85 ± 3.48 µM, 1.8 ± 0.26 µM, 41.1 ± 3.28 µM, 77 ± 6.92 µM and 25.8 ± 1.97 µM.
Take `COc1cccc2cc(/C(C)=N/NC(=O)c3cc4ccccc4cc3O)c(=O)oc12` [Compound 3a, (E)-3-Hydroxy-N’-(1-(8-methoxy-2-oxo-2 H-chromen-3-yl)ethylidene)-2-naphthohydrazide]: the IC50 in assay [1] was found to be 74.4 ± 4.98 µM; in assay [2], 1.44 ± 0.03 µM; in assay [3], 7.4 ± 0.14 µM. For the same compound, the results for the Ki in assay [1] and in assay [3] were 63.3 ± 5.38 µM and 6.03 ± 0.4 µM, respectively.
The like results for `COc1cccc2cc(/C(C)=N/NC(=O)c3ccc(F)cc3)c(=O)oc12` [Compound 3k, (E)-4-fluoro-N’-(1-(8-methoxy-2-oxo-2 H-chromen-3-yl)ethylidene)benzohydrazide] were, in that order, 71.5 ± 3.68 µM, 1.83 ± 0.17 µM, 12.4 ± 0.98 µM, 66.1 ± 4.62 µM and 7.95 ± 0.57 µM.
The like results for `COc1cccc2cc(/C(C)=N/NC(=O)c3ccccc3Br)c(=O)oc12` [Compound 3c, (E)-2-bromo-N’-(1-(8-methoxy-2-oxo-2 H-chromen-3-yl)ethylidene)benzohydrazide] were, in that order, greater than 100 µM, 2.03 ± 0.08 µM, 17 ± 1.9 µM, greater than 100 µM and 11.3 ± 0.93 µM.
The like results for `COc1cccc2cc(/C(C)=N/NC(=O)c3ccccc3Cl)c(=O)oc12` [Compound 3m, (E)-2-chloro-N’-(1-(8-methoxy-2-oxo-2 H-chromen-3-yl)ethylidene)benzohydrazide] were, in that order, 82.3 ± 6.9 µM, 1.9 ± 0.3 µM, 14.8 ± 1.4 µM, 71.4 ± 7.01 µM and 10.4 ± 0.59 µM.
With `COc1cccc2cc(/C(C)=N/NC(=O)Cn3ccc4cccnc43)c(=O)oc12` [Compound 3b, (E)-N’-(1-(8-methoxy-2-oxo-2 H-chromen-3-yl)ethylidene)-2-(1 H-pyrrolo[2,3-b]pyridin-1-yl)acetohydrazide], the results for the IC50 in assay [1], in assay [2] and in assay [3] were greater than 100 µM, 1.97 ± 0.1 µM and 26.5 ± 3.42 µM, respectively. Also, the Ki in assay [1] is greater than 100 µM; in assay [3] it was 15.7 ± 1.37 µM.
`COc1cccc2cc(/C(C)=N/NC(=O)c3cccs3)c(=O)oc12` [Compound 3j, (E)-N’-(1-(8-methoxy-2-oxo-2 H-chromen-3-yl)ethylidene)thiophene-2-carbohydrazide]: the IC50 is greater than 100 µM in assay [1], 2.5 ± 0.31 µM in assay [2] and 21.9 ± 3.24 µM in assay [3]. The figures for the Ki in assay [1] and in assay [3] were greater than 100 µM and 14.6 ± 1.05 µM, respectively.
